pEC50: −log10 of the molar value.
Assays:
hypothalamic slices = hypothalamic slices in vitro; cited from earlier work
Y4R = Y4R (Homo sapiens, UniProt P50391); assay: CaFlux Assay (FLIPR), Y4R; format: cell-based
Y1R = molecular target: T1, Y1R (Homo sapiens, UniProt P25929); assay: CaFlux Assay (FLIPR), Y1R; format: cell-based
T1 sequence (P25929 1-384): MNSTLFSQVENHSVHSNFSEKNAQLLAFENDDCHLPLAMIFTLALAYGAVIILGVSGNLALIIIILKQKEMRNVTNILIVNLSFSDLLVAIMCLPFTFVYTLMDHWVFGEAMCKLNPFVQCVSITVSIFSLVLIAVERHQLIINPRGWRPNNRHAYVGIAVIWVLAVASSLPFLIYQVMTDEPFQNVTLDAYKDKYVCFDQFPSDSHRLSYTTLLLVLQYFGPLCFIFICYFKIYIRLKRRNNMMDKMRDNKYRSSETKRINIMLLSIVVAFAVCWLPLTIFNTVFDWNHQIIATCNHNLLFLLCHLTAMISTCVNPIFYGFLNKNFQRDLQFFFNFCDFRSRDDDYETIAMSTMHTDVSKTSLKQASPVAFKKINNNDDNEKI

hNPY2R [1] = molecular target: T2, hNPY2R (Homo sapiens, UniProt P49146); assay: CaFlux Assay (FLIPR), Y2R; format: cell-based; design: expressed in transfected cells; host or cells: HEK-293 stably transfected with G protein chimera Gαqi9
T2 sequence (P49146 1-381): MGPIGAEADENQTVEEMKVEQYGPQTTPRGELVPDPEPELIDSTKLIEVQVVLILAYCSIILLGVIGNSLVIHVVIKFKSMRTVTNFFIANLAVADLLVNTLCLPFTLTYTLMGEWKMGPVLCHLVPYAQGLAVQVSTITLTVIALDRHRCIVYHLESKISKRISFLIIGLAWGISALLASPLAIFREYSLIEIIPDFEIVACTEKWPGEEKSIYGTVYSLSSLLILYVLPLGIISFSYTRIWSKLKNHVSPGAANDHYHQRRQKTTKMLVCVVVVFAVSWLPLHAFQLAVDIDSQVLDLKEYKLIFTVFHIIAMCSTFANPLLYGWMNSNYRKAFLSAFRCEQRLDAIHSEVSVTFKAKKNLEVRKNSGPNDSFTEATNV
Summary of the method: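 Stable HEK-293/Gαqi9 clones expressing receptor, pre-loaded 1 h at 37 °C with calcium dye containing 5 mM probenecid. Test compound in HBSS with 0.05% BSA and 1% DMSO added on FLIPR; baseline-corrected peak fluorescence taken as % of positive-control maximum.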

hNPY2R [2] = molecular target: T2, hNPY2R; assay: cAMP Agonist Assay, HEK293/hNPY2R; format: cell-based; design: expressed in transfected cells; host or cells: HEK293/hNPY2R (G418 selection)
Summary of the method: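 Intracellular cAMP quantified by luminescent competitive ELISA after a 30 min room-temperature treatment of overnight-plated HEK293/hNPY2R cells with compound in medium containing 5 μM forskolin, 0.5 mM IBMX and 1.1% DMSO; four replicates per concentration.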

Y5R = molecular target: T3, Y5R (Homo sapiens, UniProt Q15761); assay: CaFlux Assay (FLIPR), Y5R; format: cell-based
T3 sequence (Q15761 1-445): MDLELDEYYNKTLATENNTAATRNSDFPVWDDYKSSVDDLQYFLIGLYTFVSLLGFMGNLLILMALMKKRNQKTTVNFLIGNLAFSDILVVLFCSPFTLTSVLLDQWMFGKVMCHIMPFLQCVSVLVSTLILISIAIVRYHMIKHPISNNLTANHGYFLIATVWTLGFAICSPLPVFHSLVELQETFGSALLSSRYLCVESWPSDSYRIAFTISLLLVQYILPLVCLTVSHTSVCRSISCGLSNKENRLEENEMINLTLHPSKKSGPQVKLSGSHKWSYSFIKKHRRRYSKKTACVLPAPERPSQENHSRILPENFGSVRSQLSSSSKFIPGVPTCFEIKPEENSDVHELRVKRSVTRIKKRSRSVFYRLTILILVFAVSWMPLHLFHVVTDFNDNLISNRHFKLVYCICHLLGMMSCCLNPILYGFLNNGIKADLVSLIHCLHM

Y4R, sequence (P50391 whole entry): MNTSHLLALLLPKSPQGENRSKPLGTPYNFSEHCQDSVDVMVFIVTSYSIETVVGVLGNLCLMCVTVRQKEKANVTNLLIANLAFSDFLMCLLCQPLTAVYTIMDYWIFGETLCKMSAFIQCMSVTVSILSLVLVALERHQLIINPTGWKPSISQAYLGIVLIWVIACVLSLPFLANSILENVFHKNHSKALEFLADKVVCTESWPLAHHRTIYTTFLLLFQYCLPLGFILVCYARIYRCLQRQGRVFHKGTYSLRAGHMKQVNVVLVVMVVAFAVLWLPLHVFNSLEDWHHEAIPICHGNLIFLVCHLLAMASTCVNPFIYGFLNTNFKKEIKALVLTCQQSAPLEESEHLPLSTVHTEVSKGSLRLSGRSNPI

N=C(N)NCCC[C@H](NC(=O)CC1(CC(=O)N2CCN(C3c4ccccc4NC(=O)c4ccccc43)CC2)CCCC1)C(=O)NCCn1c(=O)n(-c2ccccc2)n(-c2ccccc2)c1=O (stereo partly drawn) [BIIE0246]
NPY release (hypothalamic slices): increases NPY release

CC[C@H](C)[C@H](NC(=O)CCCCCNC(=O)CCOCCOCCOCCOCCOCCOCCOCCOCCOCCOCCOCCOCCOCCOCCOCCOCCOCCOCCOCCOCCOCCOCCOCCOC)C(=O)N[C@@H](CCCCN)C(=O)N1CCN(c2ccc3ncn(CC(=O)N[C@@H](CCCNC(=N)N)C(=O)N[C@@H](Cc4c[nH]cn4)C(=O)N[C@@H](Cc4ccc(O)cc4)C(=O)N[C@@H](CC(C)C)C(=O)N[C@@H](CC(N)=O)C(=O)N[C@@H](Cc4c[nH]c5ccccc45)C(=O)N[C@H](C(=O)N[C@H](C(=O)N[C@@H](CCCNC(=N)N)C(=O)N[C@@H](CCC(N)=O)C(=O)N(C)[C@@H](CCCNC(=N)N)C(=O)N[C@@H](Cc4ccc(O)cc4)C(N)=O)[C@@H](C)O)C(C)C)c(=O)c3c2)CC1 [Example 20]
pEC50 (Y4R): < 5.22 | pEC50 (Y1R): < 5.22 | pEC50 (hNPY2R [1]): 9.31 | pEC50 (hNPY2R [2]): 9.05 | pEC50 (Y5R): < 5.22

Reference: patent US20110172147A1, “NEUROPEPTIDE-2 RECEPTOR (Y-2R) AGONISTS” (priority 2009, published 2011)
